Counter-ions that a name gives are not always drawn.
Legend:
[1] = Pharmacokinetic parameters for single and multiple oral doses of nirogacestat dihydrobromide; assay type: in vivo
Description: The pharmacokinetic parameters for single and multiple oral doses of nirogacestat dihydrobromide (PF-03084014) are provided in Table 1 below.

[2] = tested on: progressing desmoid tumors; conditions: Phase 2 study, participants with progressing desmoid tumors; cited from earlier work
[3] = Cohort 1: 150 mg, 1 × 150 mg, APERIOD 2, EXDOSE 150, N 10, Geometric Mean
[4] = Cohort 1: 150 mg, 1 × 150 mg, APERIOD 2, EXDOSE 150, N 10, Max
[5] = Cohort 1: 150 mg, 1 × 150 mg, APERIOD 2, EXDOSE 150, N 10, Median
[6] = Cohort 1: 150 mg, 1 × 150 mg, APERIOD 2, EXDOSE 150, N 10, Min
[7] = Cohort 1: 150 mg, 3 × 50 mg, APERIOD 1, EXDOSE 150, N 10, Max
[8] = Cohort 1: 150 mg, 3 × 50 mg, APERIOD 1, EXDOSE 150, N 10, Min
[9] = Cohort 2: 100 mg, APERIOD 1, EXDOSE 100, N 8, Geometric Mean
[10] = Cohort 2: 100 mg, APERIOD 1, EXDOSE 100, N 8, Max
[11] = Cohort 2: 100 mg, APERIOD 1, EXDOSE 100, N 8, Median
[12] = Cohort 2: 100 mg, APERIOD 1, EXDOSE 100, N 8, Min
[13] = Cohort 3: 50 mg, APERIOD 1, EXDOSE 50.0, N 8, Max
[14] = Cohort 3: 50 mg, APERIOD 1, EXDOSE 50.0, N 8, Median
[15] = Cohort 3: 50 mg, APERIOD 1, EXDOSE 50.0, N 8, Min

**Q.** Which AUCinf [1, 3] does the source give for `CCC[C@H](N[C@H]1CCc2cc(F)cc(F)c2C1)C(=O)Nc1cn(C(C)(C)CNCC(C)(C)C)cn1` [nirogacestat dihydrobromide, (S)-2-(((S)-6,8-difluoro-1,2,3,4-tetrahydronaphthalen-2-yl)amino)-N-(1-(2-methyl-1-(neopentylamino)propan-2-yl)-1H-imidazol-4-yl)pentanamide] here?
**A.** 3020 ng·h/mL

**Q.** And the AUClast [1, 3]?
**A.** 2930 ng·h/mL

**Q.** And the CL/F [1, 3]?
**A.** 49.7 L/h

**Q.** What about the Cmax [1, 3] of the same molecule?
**A.** 686 ng/mL

**Q.** What about the Half-life [1, 3] of the same molecule?
**A.** 24.7 h

**Q.** What about the AUCinf [1, 4] of the same molecule?
**A.** 5880 ng·h/mL

**Q.** What about the AUClast [1, 4] of the same molecule?
**A.** 5720 ng·h/mL

**Q.** What about the CL/F [1, 4] of the same molecule?
**A.** 82.0 L/h

**Q.** What about the Cmax [1, 4] of the same molecule?
**A.** 1200 ng/mL

**Q.** And the Half-life [1, 4]?
**A.** 34.7 h

**Q.** And the Tmax [1, 4]?
**A.** 1.52 h

**Q.** What about the AUCinf [1, 5] of the same molecule?
**A.** 3100 ng·h/mL

**Q.** And the AUClast [1, 5]?
**A.** 3040 ng·h/mL

**Q.** And the CL/F [1, 5]?
**A.** 48.4 L/h

**Q.** What about the Tmax [1, 5] of the same molecule?
**A.** 1.50 h

**Q.** And the AUCinf [1, 6]?
**A.** 1830 ng·h/mL

**Q.** And the AUClast [1, 6]?
**A.** 1790 ng·h/mL

**Q.** And the CL/F [1, 6]?
**A.** 25.5 L/h

**Q.** And the Cmax [1, 6]?
**A.** 456 ng/mL

**Q.** What about the Half-life [1, 6] of the same molecule?
**A.** 13.3 h

**Q.** What about the Tmax [1, 6] of the same molecule?
**A.** 0.500 h

**Q.** What about the CL/F ([1]; Cohort 1: 150 mg, 3 × 50 mg, APERIOD 1, EXDOSE 150, N 10, Geometric Mean) of the same molecule?
**A.** 49.2 L/h

**Q.** What about the AUCinf [1, 7] of the same molecule?
**A.** 4870 ng·h/mL

**Q.** What about the AUClast [1, 7] of the same molecule?
**A.** 4660 ng·h/mL

**Q.** And the CL/F [1, 7]?
**A.** 69.5 L/h

**Q.** What about the Cmax [1, 7] of the same molecule?
**A.** 1120 ng/mL

**Q.** What about the Half-life [1, 7] of the same molecule?
**A.** 32.0 h

**Q.** And the Tmax [1, 7]?
**A.** 2.00 h

**Q.** And the CL/F ([1]; Cohort 1: 150 mg, 3 × 50 mg, APERIOD 1, EXDOSE 150, N 10, Median)?
**A.** 57.0 L/h

**Q.** And the AUCinf [1, 8]?
**A.** 2160 ng·h/mL

**Q.** What about the AUClast [1, 8] of the same molecule?
**A.** 2080 ng·h/mL

**Q.** What about the CL/F [1, 8] of the same molecule?
**A.** 30.8 L/h

**Q.** What about the Cmax [1, 8] of the same molecule?
**A.** 547 ng/mL

**Q.** What about the Half-life [1, 8] of the same molecule?
**A.** 18.1 h

**Q.** What about the AUCinf [1, 9] of the same molecule?
**A.** 1780 ng·h/mL

**Q.** What about the AUClast [1, 9] of the same molecule?
**A.** 1720 ng·h/mL

**Q.** What about the CL/F [1, 9] of the same molecule?
**A.** 56.1 L/h

**Q.** What about the Cmax [1, 9] of the same molecule?
**A.** 435 ng/mL

**Q.** And the Half-life [1, 9]?
**A.** 25.2 h

**Q.** And the Tmax [1, 9]?
**A.** 1.19 h

**Q.** And the AUCinf [1, 10]?
**A.** 3940 ng·h/mL

**Q.** And the AUClast [1, 10]?
**A.** 3710 ng·h/mL

**Q.** And the CL/F [1, 10]?
**A.** 124 L/h

**Q.** What about the Cmax [1, 10] of the same molecule?
**A.** 654 ng/mL

**Q.** What about the Half-life [1, 10] of the same molecule?
**A.** 34.6 h

**Q.** What about the Tmax [1, 10] of the same molecule?
**A.** 2.00 h

**Q.** What about the CL/F [1, 11] of the same molecule?
**A.** 58.4 L/h

**Q.** What about the Half-life [1, 11] of the same molecule?
**A.** 24.4 h

**Q.** And the AUCinf [1, 12]?
**A.** 805 ng·h/mL

**Q.** What about the AUClast [1, 12] of the same molecule?
**A.** 777 ng·h/mL

**Q.** And the CL/F [1, 12]?
**A.** 25.4 L/h

**Q.** And the Cmax [1, 12]?
**A.** 259 ng/mL

**Q.** And the Half-life [1, 12]?
**A.** 19.7 h

**Q.** And the Tmax [1, 12]?
**A.** 0.500 h

**Q.** And the CL/F ([1]; Cohort 3: 50 mg, APERIOD 1, EXDOSE 50.0, N 8, Geometric Mean)?
**A.** 87.6 L/h

**Q.** And the AUCinf [1, 13]?
**A.** 2140 ng·h/mL

**Q.** What about the AUClast [1, 13] of the same molecule?
**A.** 2120 ng·h/mL

**Q.** What about the CL/F [1, 13] of the same molecule?
**A.** 660 L/h

**Q.** What about the Cmax [1, 13] of the same molecule?
**A.** 507 ng/mL

**Q.** What about the Half-life [1, 13] of the same molecule?
**A.** 32.8 h

**Q.** And the Tmax [1, 13]?
**A.** 1.52 h

**Q.** What about the CL/F [1, 14] of the same molecule?
**A.** 74.9 L/h

**Q.** And the Half-life [1, 14]?
**A.** 23.3 h

**Q.** What about the AUCinf [1, 15] of the same molecule?
**A.** 75.7 ng·h/mL

**Q.** What about the AUClast [1, 15] of the same molecule?
**A.** 71.6 ng·h/mL

**Q.** And the CL/F [1, 15]?
**A.** 23.4 L/h

**Q.** What about the Cmax [1, 15] of the same molecule?
**A.** 49.6 ng/mL

**Q.** What about the Half-life [1, 15] of the same molecule?
**A.** 4.24 h

**Q.** And the Tmax [1, 15]?
**A.** 0.500 h

**Q.** Which “participants progressing while on therapy” value [2] does the source give for `CCC[C@H](N[C@H]1CCc2cc(F)cc(F)c2C1)C(=O)Nc1cn(C(C)(C)CNCC(C)(C)C)cn1` [nirogacestat, (S)-2-(((S)-6,8-difluoro-1,2,3,4-tetrahydronaphthalen-2-yl)amino)-N-(1-(2-methyl-1-(neopentylamino)propan-2-yl)-1H-imidazol-4-yl)pentanamide] here?
**A.** no participants progressing while on therapy

**Q.** And the response rate [2]?
**A.** 29%

**Q.** And the “tumor shrinkage as measured by magnetic resonance imaging (MRI)” value [2]?
**A.** significant tumor shrinkage
